In US8575170B2, “Flurbiprofen analogs and methods of use in treating cancer” (The Regents of the Unversity of Colorado, a body corporate, priority 2010, dated 2013):
Where two headings read alike, the source gives them in different places.

What was measured:
Type in all cases: cell-based
[1] = system: H865; experiment: MTT cell viability, H865; conditions: 96 h; SCLC lung cell line H865; 4 days incubation
Description: (§1) The ability of the flurbiprofen analog compounds of the invention to inhibit cancer cell growth and survival (viability) in a variety of cancer lines was examined in a standard MTT assay for cell viability, as detailed in Example 2.
(§2) The studies reported in Tables 1-3 above were carried out by incubating the cells in the test compound for four days, under standard cell-culture conditions, and measuring cell survival on day 5 (see Example 2).
(§3) Cell growth and survival following treatment with N—[(S)-2-Fluoro-α-methyl-4-biphenylacetyl]-[L-(4-phenylphenyl)alanine]-N-(2,2,6,6-tetramethyl-4-piperidinyl)amide (GCBH-110=B1031; (S)-Fmba-L-Bip-Atmp) were measured by a rapid colorimetric assay based on the tetrazolium salt MTT (3-(4,5-dimethylthiazol-2-yl)-2,5-diphenyl tetrazolium bromide) (Mosmann, J. Immunol. Methods 65: 55-63, 1983, with minor modifications).
(§4) Briefly, approximately 1,000-5,000 cancer cells from 15 different cancer cells lines were plated in 100 μL of growth medium in 96-well flat-bottomed microtiter plates. Cells were incubated overnight to allow recovery. Compounds to be tested were added to the cells in triplicate in a range of concentrations and the cells were incubated at 37° C., 5% CO2, with 100% humidity. Control cells were treated in the same way without antagonists. […] Absorbance was immediately determined using a scanning multiwell plate reader.

[2] = system: H1648; experiment: MTT cell viability, H1648; conditions: Homo sapiens, NCI-H1648, 96 h; SCLC lung cell line H1648; 4 days incubation
Description: as §1, §2, §3, §4

[3] = system: UMSCC10A; experiment: MTT cell viability, UMSCC10A; conditions: UMSCC-10A; Head and neck cancer cell line UMSCC10A
Description: as §1
(§5) A similar study was conducted on 14 […] cancer cell lines, identified in Table 2.
as §3
(§6) Briefly, approximately 1,000-5,000 cancer cells from 15 different cancer cells lines were plated in 100 μL of growth medium in 96-well flat-bottomed microtiter plates. Cells were incubated overnight to allow recovery. Compounds to be tested were added to the cells in triplicate in a range of concentrations and the cells were incubated at 37° C., 5% CO2, with 100% humidity. Control cells were treated in the same way without antagonists. […] Plates were incubated for 4 days, allowing sufficient time for cell replication and compound-induced cell death to occur. […] Absorbance was immediately determined using a scanning multiwell plate reader. […]

[4] = system: S84; experiment: MTT cell viability, S84; conditions: Head and neck cancer cell line S84
Description: as §1, §5, §3, §6

[5] = system: MSK922; experiment: MTT cell viability, MSK922; conditions: Head and neck cancer cell line MSK922
Description: as §1, §5, §3, §6

[6] = system: UMSCC19; experiment: MTT cell viability, UMSCC19; conditions: Head and neck cancer cell line UMSCC19
Description: as §1, §5, §3, §6

[7] = system: Panc-504; experiment: MTT cell viability, Panc-504; conditions: Pancreatic cancer cell, 96 h; Pancreatic cancer cells Panc-504; 4 days incubation
From the text: as §1
(§7) Similar results were obtained for the effect of the B1031 compound on the 14 pancreatic tumor cells lines shown in Table 3 below, where the dose dependent effect of the compound on survival of the pancreatic cancer cell lines is shown in FIG. 5.
as §2, §3
(§8) Briefly, approximately 1,000-5,000 cancer cells from 15 different cancer cells lines were plated in 100 μL of growth medium in 96-well flat-bottomed microtiter plates. Cells were incubated overnight to allow recovery. […] Absorbance was immediately determined using a scanning multiwell plate reader.

[8] = system: Aspc-1; experiment: MTT cell viability, Aspc-1; conditions: Homo sapiens, ASPC1, 96 h; Pancreatic cancer cells Aspc-1; 4 days incubation
From the text: as §1, §7, §2, §3, §8

[9] = system: L36; experiment: MTT cell viability, L36; conditions: Pancreatic cancer cell, 96 h; Pancreatic cancer cells L36; 4 days incubation
From the text: as §1, §7, §2, §3, §8

[10] = system: Panc-203; experiment: MTT cell viability, Panc-203; conditions: Homo sapiens, Panc203, 96 h; Pancreatic cancer cells Panc-203; 4 days incubation
From the text: as §1, §7, §2, §3, §8

[11] = system: MiaPaCa; experiment: MTT cell viability, MiaPaCa; conditions: Homo sapiens, MIA PaCa-2, 96 h; Pancreatic cancer cells MiaPaCa; 4 days incubation
From the text: as §1, §7, §2, §3, §8

[12] = system: Capan-2; experiment: MTT cell viability, Capan-2; conditions: Homo sapiens, 96 h; Pancreatic cancer cells Capan-2; 4 days incubation
From the text: as §1, §7, §2, §3, §8

[13] = system: WM375; experiment: MTT cell viability, WM375; conditions: Melanoma cell line WM375
From the text: as §1
The results for the several cell lines above were also consistent with IC50 values measured for two melanoma cell lines shown in Table 4 below.
as §3, §4

[14] = system: lung cancer cell lines; experiment: MTT cell viability, panel of lung cancer cell lines
From the text: as §1
In one group of studies, the effect of compound B1031 (compound GCBH-110 above) on a variety of lung cancer cells lines identified in Tables 1A-1C was investigated FIGS. 1 and 2 are dose-response curves, showing the change in percent survival as a function of compound concentration, after four days incubation in the presence of the compound for the various cell lines tested (identified in Tables 1A-1C below). […] The 12 cell lines shown in Table 1A are all adenocarcinoma lines, a type of non-small cell lung carcinoma; the 11 cell lines shown in Table 1B, identified as adenosquamous, large cell, mesothelioma, squamous, and squaous mesothelioma, are non-small cell lung carcinoma lines; and the 7 cell lines shown in Table 1C are all small-cell lung carcinoma cell lines.
as §3
Briefly, approximately 1,000-5,000 cancer cells from 15 different cancer cells lines were plated in 100 μL of growth medium in 96-well flat-bottomed microtiter plates. Cells were incubated overnight to allow recovery. Compounds to be tested were added to the cells in triplicate in a range of concentrations and the cells were incubated at 37° C., 5% CO2, with 100% humidity. Control cells were treated in the same way without antagonists. […] Plates were incubated for 4 days, allowing sufficient time for cell replication and compound-induced cell death to occur. On day 5, 25 μL of a 2 mg/mL solution of MTT (Sigma) dissolved in RMPI-1640 was added to each well. The plate was incubated for 4 h at 37° C. The supernatant liquid was removed and the blue formazan complex was dissolved by adding 100 μL of 0.02 N HCl in 75% isopropanol to all wells. Absorbance was immediately determined using a scanning multiwell plate reader.
Similarly, cell growth and survival following treatment with GCBH-110=B1031 was tested using the same MTT assay in 17 lung cancer cell lines. GCBH-110=B1031 caused 50% cell death at concentrations between about 0.1 μM and about 2 μM under these conditions (FIG. 2).

Work on C[C@H](C(=O)N[C@@H](Cc1ccc(-c2ccccc2)cc1)C(=O)NC1CC(C)(C)NC(C)(C)C1)c1ccc(-c2ccccc2)c(F)c1 [GCBH-110, N—[(S)-2-Fluoro-α-methyl-4-biphenylacetyl]-[L-(4-phenylphenyl)alanine]-N-(2,2,6,6-tetramethyl-4-piperidinyl)amide] yielded an IC50 [1] of 360 nM, an IC50 [2] of 280 nM and an IC50 [3] of 200 nM. It also gave an IC50 [4] of 230 nM, an IC50 [5] of 410 nM and an IC50 [6] of 2000 nM. For the same compound, the IC50 [7] was 160 nM, the IC50 [8] was 500 nM and the IC50 [9] was 600 nM. It also gave an IC50 [10] of 700 nM, an IC50 [11] of 740 nM and an IC50 [12] of 1500 nM. The IC50 [13] was 280 nM, the IC50 ([14]; 17 lung cancer cell lines, FIG. 2, read-out: concentrations causing 50% cell death) was 100 to 2000 nM and the IC50 ([14]; 96 h, FIGS. 1 and 2, four days incubation, read-out: compound concentrations effective to produce 50% cell death) was 100 to 2000 nM. For the same compound, the IC50 ([14]; most of the lung cancer cell lines of Tables 1A-1C, read-out: IC50 value, most cell lines) was less than 500 nM, the IC50 ([14]; span over the 32 lung cancer cell lines of Tables 1A-1C, read-out: IC50 values) was 100 to 1800 nM and the “IC50 fold lower than flurbiprofen (anti-cancer activity relative to flurbiprofen)” value ([14]; variety of lung carcinoma cells, FIG. 9) was “about 1000 fold”.
